Like-named read-outs stand apart in the source and are kept apart here. Where a SMILES comes first, the peptide text is derived from it.
How the values were obtained:
[1] = target: oncoprotein E7 from Human Papilloma Virus type 16 as GST fusion protein (E7-GST), phosphorylated by CK2 enzyme (Human papillomavirus type 16, UniProt P03129); assay type: biochemical; conditions: read-out: Inhibitory concentration 50 (IC50)
[2] = system: CK2 optimized consensus substrate sequence RRREEETEEE; assay: In vitro CK2 phosphorylation of the optimized consensus substrate peptide […], filter radioactivity; assay type: biochemical; conditions: read-out: Inhibitory concentration 50 (IC50)
Description: The assay consists in performing an in vitro phosphorylation reaction, using as the substrate the sequence […] (SEQ. ID NO. 1) widely accepted as an optimized consensus phosphorylation domain for the CK2 substrates.
Before the enzymatic reaction the substrate peptide was preincubated one hour at 37° C., with different concentrations of the chemical compounds. The reaction is carried out in a mixture consisting of 50 μl Tris:HCL 25 mM pH 7.5 buffer, 1 μCi of ^32P-γATP, 100 μM ATP, 40 μl E7-GST containing resin, 0.2 M NaCl, 10 mM MgCl and 1 unit of the CK2 enzyme (Promega), allowing it to proceed for 10 minutes at 37° C. After the reaction 5 μl of the reaction mixture were applied to a Whatmann PE-81 paper filter and washed four times with 10 mM H3PO4, finally the paper associated radioactivity was measured and the cpm value for each sample was directly correlated with the CK2 enzymatic activity.
The IC50 values were estimated using each dosage-effect curve.

[3] = system: H-125 cells; assay: Cytotoxic effect on cultured human tumour cells (MTS, 72 h); assay type: cell-based; conditions: read-out: Inhibitory concentration 50 (IC50)
Description: H-125 cells from a human Non Small Cells Lung Carcinoma were soiled in 96 well plates (Costar) to a 2×10^4 cell/ml density in Dulbecco (DMEM) media (Gibco) and supplemented with Foetal Calf Serum (Gibco). 24 hours later the chemical compounds described herein were added to the cultured media in a range between 0.5 and 100 nM, incubating the mixture for 72 h at 37° C. in 5% CO2, at the end 20 μl of a 1.90 mg/ml MTS solution was added. […] The results are evaluated as growth percentage to controls without any compound, and the IC50 values were estimated using each dosage-effect curve.

[4] = system: Jurkat cells; conditions: cited from earlier work
[5] = system: H-125 cells tumour implant; set-up: species or system BalbC nude mice; conditions: mouse, in vivo
[6] = substrate peptide preincubated 1 h at 37° C., reaction 10 minutes at 37° C., 100 μM ATP
[7] = NCI-H125, H-125 cells, 72 h, MTS, absorbance 492 nm

Sequence of oncoprotein E7 from Human Papilloma Virus type 16 as GST fusion protein (E7-GST), phosphorylated by CK2 enzyme (P03129 whole entry, looked up, the tested form may be a part): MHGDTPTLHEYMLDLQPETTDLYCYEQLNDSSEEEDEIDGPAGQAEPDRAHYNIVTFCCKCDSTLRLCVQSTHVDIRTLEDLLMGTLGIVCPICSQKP

| SMILES | IC50 [1] | IC50 [2] | IC50 ([3]; NCI-H125, 72 h) | apoptosis and caspase dependent degradation induction [4] | IC50 [2, 6] | IC50 [3, 7] | antitumoral response [5] |
| --- | --- | --- | --- | --- | --- | --- | --- |
| CC1=C/C(=N\NC(N)=O)CC(C)(C)C1 [C30401] | 26 ± 11 nM | 62 ± 11 nM | 103 ± 21 nM |  |  |  |  |
| O=C(O)CCNC(=O)NCCC(=O)O [C30404] | 20 ± 8 nM | 61 ± 8 nM | 115 ± 18 nM |  |  |  |  |
| Brc1c(Br)c(Br)c2[nH]nnc2c1Br [TBB, 4,5,6,7-tetrabromotriazole] |  |  |  | potent apoptosis and caspase dependent degradation inducer |  |  |  |
| O=C(NCO)NC1NC(=O)NC1=O (stereo not drawn) [C30409] | 31 ± 6 nM | 55 ± 6 nM | 104 ± 6 nM |  |  |  |  |
| NCC(=O)NCC(=O)NCC(=O)NCC(=O)O [C31416] (H-GGGG-OH) | 39 ± 6 nM |  |  |  | 69 ± 6 nM | 109 ± 6 nM |  |
| N#CCNC(=O)NCCCl [C30405] | 27 ± 10 nM | 57 ± 10 nM | 104 ± 12 nM |  |  |  |  |
| O=S(=O)(O)Nc1cnc(O)nc1O [C34429] | 21 ± 12 nM | 61 ± 4 nM | 131 ± 4 nM |  |  |  |  |
| N=C(N)C(NC=O)C(=O)NCc1ccccc1 (stereo not drawn) [C30414] | 23 ± 9 nM | 68 ± 9 nM | 118 ± 9 nM |  |  |  |  |
| CCCCNC(=O)NCc1ccco1 [C30403] | 34 ± 9 nM | 58 ± 9 nM | 128 ± 9 nM |  |  |  |  |
| CSc1nc(N)nc2c1ncn2C1CC(CO)C(O)C1O (stereo not drawn) [C34439] | 33 ± 5 nM | 63 ± 12 nM | 123 ± 25 nM |  |  |  |  |
| N#CC(Nc1ccccc1C(N)=O)c1ccccc1 (stereo not drawn) [C34436] | 30 ± 2 nM | 66 ± 2 nM | 116 ± 22 nM |  |  |  |  |
| NCCC(=O)NCC(=O)NCC(=O)O [C31420] (HELM PEPTIDE1{[bAla].G.G}$$$$V2.0) | 25 ± 7 nM | 55 ± 11 nM | 125 ± 10 nM |  |  |  |  |
| OCCNCCCNc1ccnc2cc(Cl)ccc12 [C34428] | 25 ± 7 nM | 65 ± 10 nM | 165 ± 12 nM |  |  |  |  |
| NCCNCCNCCNCCN [C33426] | 29 ± 8 nM | 79 ± 9 nM | 109 ± 19 nM |  |  |  | significant antitumoral response |
| O=C1NC(=O)C(CS(=O)(=O)Nc2cccc(C(F)(F)F)c2)N1 (stereo not drawn) [C34430] | 30 ± 4 nM | 70 ± 4 nM | 140 ± 14 nM |  |  |  |  |
| CC(C)(C)NC(=O)NCCCl [C30411] | 27 ± 10 nM | 66 ± 12 nM | 126 ± 15 nM |  |  |  |  |
| CC(C)(NC(=O)NCCCl)c1ccccc1 [C30412] | 30 ± 3 nM | 71 ± 5 nM | 91 ± 15 nM |  |  |  |  |
| CC(C)NC(=S)Nc1c(N)nc(O)nc1O [C30402] | 30 ± 5 nM |  |  |  | 74 ± 7 nM | 98 ± 7 nM |  |
| NNC(=O)CNc1ccc(F)c(C(F)(F)F)c1 [C31421] | 30 ± 8 nM | 50 ± 8 nM | 120 ± 18 nM |  |  |  |  |
| NCCC(=O)NCc1ccccc1 [C34433] | 26 ± 10 nM | 76 ± 8 nM | 116 ± 18 nM |  |  |  |  |

| SMILES | IC50 [1] | IC50 [2] | IC50 ([3]; NCI-H125, 72 h) | apoptosis and caspase dependent degradation induction [4] | IC50 [2, 6] | IC50 [3, 7] | antitumoral response [5] |
| --- | --- | --- | --- | --- | --- | --- | --- |
| CC(C)(CS(C)(=O)=O)NC(=O)NCCCl [C30413] | 24 ± 9 nM | 64 ± 11 nM | 130 ± 11 nM |  |  |  |  |
| C/C(COc1ccccc1)=N/NC(N)=S [C30415] | 33 ± 8 nM | 72 ± 10 nM | 112 ± 10 nM |  |  |  |  |
| NNC(=O)CC(O)C(=O)NN (stereo not drawn) [C34434] | 28 ± 5 nM | 78 ± 1 nM | 108 ± 21 nM |  |  |  |  |
| O=C(O)c1cc(O)nc(SCc2ccc(Cl)cc2Cl)n1 [C34432] | 29 ± 7 nM | 67 ± 7 nM | 127 ± 7 nM |  |  |  |  |
| CC(Br)C(=O)NCC(=O)NCC(=O)O (stereo not drawn) [C31418] | 32 ± 5 nM | 72 ± 5 nM | 123 ± 15 nM |  |  |  |  |
| NC(CC(=O)NC(=O)OCc1ccccc1)C(=O)O (stereo not drawn) [C34435] | 34 ± 3 nM | 64 ± 6 nM | 124 ± 16 nM |  |  |  |  |
| O=C(O)CNC(=S)C(=S)NCC(=O)O [C32425] | 35 ± 3 nM | 65 ± 13 nM | 115 ± 12 nM |  |  |  | significant antitumoral response |
| NC(=S)NN=CCn1ccc(=O)n(CC=NNC(N)=S)c1=O [C31419] | 30 ± 4 nM | 60 ± 8 nM | 132 ± 18 nM |  |  |  |  |
| C/C=C/CC/C(=N\NC(N)=O)c1ccccc1 [C30408] | 29 ± 2 nM | 79 ± 5 nM | 119 ± 8 nM |  |  |  |  |
| CCCC(NC(=O)CNC(=O)CN)C(=O)O (stereo not drawn) [C31424] (HELM PEPTIDE1{G.G.[CCCC(N[*:1])C(=O)O]}$$$$V2.0) | 32 ± 13 nM | 62 ± 1 nM | 162 ± 11 nM |  |  |  |  |
| CCOC(=O)c1cc[nH]c1CC(=O)NN [C34440] | 26 ± 4 nM | 56 ± 4 nM | 136 ± 32 nM |  |  |  |  |
| C/C(Cc1c[nH]c2ccccc12)=N\NC(N)=S [C30406] | 32 ± 7 nM | 60 ± 7 nM | 97 ± 17 nM |  |  |  |  |
| Cn1c(CCNC(=N)CSS(=O)(=O)O)nc2ccccc21 [C34437] | 27 ± 4 nM | 71 ± 9 nM | 131 ± 9 nM |  |  |  |  |
| O=C(NNCCO)c1ccncc1 [C34431] | 32 ± 6 nM | 55 ± 3 nM | 155 ± 23 nM |  |  |  |  |
| CC(C(=O)NCC(O)CO)n1ccnc1[N+](=O)[O-] (stereo not drawn) [C31423] | 26 ± 8 nM | 76 ± 4 nM | 106 ± 9 nM |  |  |  |  |
| NNC(=O)CNc1cccc(I)c1 [C31422] | 24 ± 5 nM | 74 ± 5 nM | 114 ± 5 nM |  |  |  |  |
| Clc1cc(Cl)cc(Nc2nc(C(Cl)(Cl)Cl)nc(C(Cl)(Cl)Cl)n2)c1 [C30410] | 40 ± 9 nM | 54 ± 7 nM | 114 ± 7 nM |  |  |  |  |
| CN(CC(=O)O)C(=O)CNC(=O)OCc1ccccc1 [C31417] (HELM PEPTIDE1{[O=C(OCc1ccccc1)[*:2]].G.[Sar]}$$$$V2.0) | 28 ± 11 nM | 78 ± 11 nM | 118 ± 21 nM |  |  |  |  |
| CC(O)CNc1nc(N)nc(O)c1[N+](=O)[O-] (stereo not drawn) [C34438] | 31 ± 1 nM | 81 ± 7 nM | 111 ± 17 nM |  |  |  |  |

Source: US8748411B2, “Antineoplastic compounds and pharmaceutical compositions thereof” (Centro de Ingenieria Genetica y Biotechnologia, priority 2005, dated 2014)
